Test results: patent US12350270B2, “Antimalarial agents” (Merck Sharp & Dohme LLC, priority 2019, dated 2025)

test system: parasites (ring stage, in human red blood cell culture); assay: Parasite LDH growth assay (antiparasite potency, Parasite Assay); format: cell-based, Plasmodium falciparum; details: Plasmodium falciparum, Erythrocyte, 72 h, 0.7% rings, 2% haematocrit, 72 hours at 37° C., LDH readout of parasite growth
In short: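 Ring-stage parasites at 0.7% parasitemia and 2% haematocrit, in RPMI-Hepes/bicarbonate with 5% heat-inactivated human serum and 0.5% albumax, were added to compound-containing medium. Cultures grew 72 h at 37 °C in gassed humidified boxes. Plates were then frozen overnight at −80 °C, thawed 4 h, and growth was measured by LDH assay.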

| SMILES | EC50 [nM] |
| --- | --- |
| CC1(C)CC(=O)N([C@H]2CCS(=O)(=O)c3ccc(C(=O)N[C@H]4CC(C)(C)Oc5ccccc54)cc32)C(=N)N1 [Example 221, (4S)-N-[(4S)-2,2-dimethylchroman-4-yl]-4-(2-imino-4,4-dimethyl-6-oxo-hexahydropyrimidin-1-yl)-1,1-dioxo-3,4-dihydro-2H-thiochromene-6-carboxamide] | 190 |
| CCC1(CC)CC(=O)N([C@@H]2CCS(=O)(=O)c3ccc(C(=O)N[C@@H]4c5ccccc5C[C@H]4O)cc32)C(=N)N1 [Example 222, (4R)-4-(4,4-diethyl-2-imino-6-oxo-hexahydropyrimidin-1-yl)-N-[(1R,2R)-2-hydroxyindan-1-yl]-1,1-dioxo-3,4-dihydro-2H-thiochromene-6-carboxamide] | 15.6 |
| CCC1(CC)CC(=O)N([C@H]2CCS(=O)(=O)c3ccc(C(=O)N[C@@H]4c5ccccc5C[C@H]4O)cc32)C(=N)N1 [Example 223, (4S)-4-(4,4-diethyl-2-imino-6-oxo-hexahydropyrimidin-1-yl)-N-[(1R,2R)-2-hydroxyindan-1-yl]-1,1-dioxo-3,4-dihydro-2H-thiochromene-6-carboxamide] | 300 |
| CC[C@]1(C)CC(=O)N([C@@H]2CCOc3ccc(C(=O)N[C@@H]4c5cc(F)ccc5OC(C)(C)[C@H]4O)cc32)C(=N)N1 [Example 224, (4R)-4-[(4R)-4-ethyl-2-imino-4-methyl-6-oxo-hexahydropyrimidin-1-yl]-N-[(3S,4R)-6-fluoro-3-hydroxy-2,2-dimethyl-chroman-4-yl]chromane-6-carboxamide] | 0.3 |
| CC[C@@]1(C)CC(=O)N([C@@H]2CCOc3ccc(C(=O)N[C@@H]4c5cc(F)ccc5OC(C)(C)[C@H]4O)cc32)C(=N)N1 [Example 225, (4R)-4-[(4S)-4-ethyl-2-imino-4-methyl-6-oxo-hexahydropyrimidin-1-yl]-N-[(3S,4R)-6-fluoro-3-hydroxy-2,2-dimethyl-chroman-4-yl]chromane-6-carboxamide] | 0.8 |
| CCC1(CC)CC(=O)N([C@@H]2CCOc3ccc(C(=O)NC4c5ccccc5C(F)(F)C4(C)C)cc32)C(=N)N1 (stereo partly drawn) [Example 227, (4R)-4-(4,4-diethyl-2-imino-6-oxo-hexahydropyrimidin-1-yl)-N-(3,3-difluoro-2,2-dimethyl-indan-1-yl)chromane-6-carboxamide] | 1.3 |
| CC1(C)CC(=O)N(C2CCS(=O)(=O)c3ccc(C(=O)N[C@@H]4c5ccccc5OC[C@@]4(C)O)cc32)C(=N)N1 (stereo partly drawn) [Example 228, N-[(3S,4R)-3-hydroxy-3-methyl-chroman-4-yl]-4-(2-imino-4,4-dimethyl-6-oxo-hexahydropyrimidin-1-yl)-1,1-dioxo-3,4-dihydro-2H-thiochromene-6-carboxamide] | 282 |
| CC1(C)CC(=O)N(C2CCS(=O)(=O)c3ccc(C(=O)N[C@@H]4c5ccccc5OC[C@]4(C)O)cc32)C(=N)N1 (stereo partly drawn) [Example 229, N-[(3R,4R)-3-hydroxy-3-methyl-chroman-4-yl]-4-(2-imino-4,4-dimethyl-6-oxo-hexahydropyrimidin-1-yl)-1,1-dioxo-3,4-dihydro-2H-thiochromene-6-carboxamide] | 59.3 |
| CC[C@]1(C)CC(=O)N([C@@H]2CCOc3ccc(C(=O)N[C@@H]4c5cc(Cl)ccc5OC[C@@]4(C)O)cc32)C(=N)N1 [Example 230, (4R)-N-[(3S,4R)-6-chloro-3-hydroxy-3-methyl-chroman-4-yl]-4-[(4R)-4-ethyl-2-imino-4-methyl-6-oxo-hexahydropyimidin-1-yl]chromane-6-carboxamide] | 2.7 |
| CCC1(CC)CC(=O)N([C@@H]2CCOc3ccc(C(=O)N[C@@H]4c5cc(Cl)ccc5OC[C@H]4O)cc32)C(=N)N1 [Example 231, (4R)-N-[(3S,4R)-6-chloro-3-hydroxy-chroman-4-yl]-4-(4,4-diethyl-2-imino-6-oxo-hexahydropyrimidin-1-yl)chromane-6-carboxamide] | 7.4 |
| CC[C@]1(C)CC(=O)N([C@H]2c3cc(C(=O)N[C@@H]4c5ccccc5C(F)(F)[C@H]4O)ccc3OC[C@@H]2OC)C(=N)N1 [Example 232, (3R,4S)-N-[(1R,2S)-3,3-difluoro-2-hydroxy-indan-1-yl]-4-[(4R)-4-ethyl-2-imino-4-methyl-6-oxo-hexahydropyrimidin-1-yl]-3-methoxy-chromane-6-carboxamide] | 21.8 |
| CCC1(CC)CC(=O)N([C@@H]2CCOc3ccc(C(=O)NC(CC4CCCCC4)c4ccccc4)cc32)C(=N)N1 (stereo partly drawn) [Example 233, (4R)-N-(2-cyclohexyl-1-phenyl-ethyl)-4-(4,4-diethyl-2-imino-6-oxo-hexahydropyrimidin-1-yl)chromane-6-carboxamide] | 7.9 |
| CCC1(CC)CC(=O)N([C@H]2c3cc(C(=O)N[C@@H]4c5ccccc5C[C@@]4(C)O)ccc3OC[C@H]2COC)C(=N)N1 [Example 235, (3R,4R)-4-(4,4-diethyl-2-imino-6-oxo-hexahydropyrimidin-1-yl)-N-[(1R,2R)-2-hydroxy-2-methyl-indan-1-yl]-3-(methoxymethyl)chromane-6-carboxamide] | 0.7 |
| CCC1(CC)CC(=O)N([C@@H]2C[C@@H](OC)c3ccc(C(=O)N[C@@H]4c5ccccc5OC(C)(C)[C@H]4O)cc32)C(=N)N1 [Example 236, (1R,3R)-3-(4,4-diethyl-2-imino-6-oxo-hexahydropyrimidin-1-yl)-N-[(3S,4R)-3-hydroxy-2,2-dimethyl-chroman-4-yl]-1-methoxy-indane-5-carboxamide] | 0.9 |
| CCC1(CC)CC(=O)N([C@H]2C[C@H](OC)c3ccc(C(=O)N[C@@H]4c5ccccc5OC(C)(C)[C@H]4O)cc32)C(=N)N1 [Example 237, (1S,3S)-3-(4,4-diethyl-2-imino-6-oxo-hexahydropyrimidin-1-yl)-N-[(3S,4R)-3-hydroxy-2,2-dimethyl-chroman-4-yl]-1-methoxy-indane-5-carboxamide] | 240 |
| CCC1(CC)CC(=O)N([C@H]2C[C@@H](OC)c3ccc(C(=O)N[C@@H]4c5ccccc5OC(C)(C)[C@H]4O)cc32)C(=N)N1 [Example 238, (1R,3S)-3-(4,4-diethyl-2-imino-6-oxo-hexahydropyrimidin-1-yl)-N-[(3S,4R)-3-hydroxy-2,2-dimethyl-chroman-4-yl]-1-methoxy-indane-5-carboxamide] | 47.8 |
| CCC1(CC)CC(=O)N([C@@H]2C[C@H](OC)c3ccc(C(=O)N[C@@H]4c5ccccc5OC(C)(C)[C@H]4O)cc32)C(=N)N1 [Example 239, (1S,3R)-3-(4,4-diethyl-2-imino-6-oxo-hexahydropyrimidin-1-yl)-N-[(3S,4R)-3-hydroxy-2,2-dimethyl-chroman-4-yl]-1-methoxy-indane-5-carboxamide] | 0.9 |
| CCC1(CC)CC(=O)N([C@H]2c3cc(C(=O)N[C@@H]4c5ccccc5OC(C)(C)[C@H]4O)ccc3OC[C@@H]2C)C(=N)N1 [Example 240, (3R,4R)-4-(4,4-diethyl-2-imino-6-oxo-hexahydropyrimidin-1-yl)-N-[(3S,4R)-3-hydroxy-2,2-dimethyl-chroman-4-yl]-3-methyl-chromane-6-carboxamide] | 0.6 |
| CCC1(CC)CC(=O)N([C@H]2c3cc(C(=O)N[C@@H]4c5ccccc5OC(C)(C)[C@H]4O)ccc3OC[C@H]2C)C(=N)N1 [Example 241, (3S,4R)-4-(4,4-diethyl-2-imino-6-oxo-hexahydropyrimidin-1-yl)-N-[(3S,4R)-3-hydroxy-2,2-dimethyl-chroman-4-yl]-3-methyl-chromane-6-carboxamide] | 0.4 |
| CC[C@]1(C)CC(=O)N(C2c3cc(C(=O)N[C@@H]4c5ccccc5OC(C)(C)[C@H]4O)ccc3OCC2(C)C)C(=N)N1 (stereo partly drawn) [Example 243, 4-[(4R)-4-ethyl-2-imino-4-methyl-6-oxo-hexahydropyrimidin-1-yl]-N-[(3S,4R)-3-hydroxy-2,2-dimethyl-chroman-4-yl]-3,3-dimethyl-chromane-6-carboxamide] | 6.1 |
| CCC1(CC)CC(=O)N(C2c3cc(C(=O)N[C@@H]4c5ccccc5C[C@H]4O)ccc3OCC2(C)COC)C(=N)N1 (stereo partly drawn) [Example 244, 4-(4,4-diethyl-2-imino-6-oxo-hexahydropyrimidin-1-yl)-N-[(1R,2R)-2-hydroxyindan-1-yl]-3-(methoxymethyl)-3-methyl-chromane-6-carboxamide] | 7.8 |
| CCC1(CC)CC(=O)N([C@H]2c3cc(C(=O)N[C@@H]4c5ccccc5OC(C)(C)[C@H]4O)ccc3OC2(C)C)C(=N)N1 [Example 245, (3S)-3-(4,4-diethyl-2-imino-6-oxo-hexahydropyrimidin-1-yl)-N-[(3S,4R)-3-hydroxy-2,2-dimethyl-chroman-4-yl]-2,2-dimethyl-3H-benzofuran-5-carboxamide] | 0.8 |
| CCC1(CC)CC(=O)N([C@@H]2C[C@@H](C)Oc3ccc(C(=O)N[C@@H]4c5ccccc5OC(C)(C)[C@H]4O)cc32)C(=N)N1 [Example 246, (2R,4R)-4-(4,4-diethyl-2-imino-6-oxo-hexahydropyrimidin-1-yl)-N-[(3S,4R)-3-hydroxy-2,2-dimethyl-chroman-4-yl]-2-methyl-chromane-6-carboxamide] | 2 |
| CCC1(CC)CC(=O)N([C@H]2c3cc(C(=O)N[C@@H]4c5ccccc5OC[C@@]4(C)O)ccc3CC[C@@H]2OC)C(=N)N1 [Example 247, (3S,4S)-4-(4,4-diethyl-2-imino-6-oxo-hexahydropyrimidin-1-yl)-N-[(3S,4R)-3-hydroxy-3-methyl-chroman-4-yl]-3-methoxy-tetralin-6-carboxamide] | 4.5 |
| CCC1(CC)CC(=O)N([C@@H]2CCCOc3ccc(C(=O)N[C@@H]4c5ccccc5OC(C)(C)[C@H]4O)cc32)C(=N)N1 [Example 248, (5R)-5-(4,4-diethyl-2-imino-6-oxo-hexahydropyrimidin-1-yl)-N-[(3S,4R)-3-hydroxy-2,2-dimethyl-chroman-4-yl]-2,3,4,5-tetrahydro-1-benzoxepine-7-carboxamide] | 0.8 |
